Laboratory results as given in ChEMBL document CHEMBL5291721, “A preclinical secondary pharmacology resource illuminates target-adverse drug reaction associations of marketed drugs” (Nat Commun, 2023).

Key:
[1] = target: T1, Muscarinic acetylcholine receptor M1 (Homo sapiens, UniProt P11229); type: functional, cell-based
T1 sequence (P11229 whole entry): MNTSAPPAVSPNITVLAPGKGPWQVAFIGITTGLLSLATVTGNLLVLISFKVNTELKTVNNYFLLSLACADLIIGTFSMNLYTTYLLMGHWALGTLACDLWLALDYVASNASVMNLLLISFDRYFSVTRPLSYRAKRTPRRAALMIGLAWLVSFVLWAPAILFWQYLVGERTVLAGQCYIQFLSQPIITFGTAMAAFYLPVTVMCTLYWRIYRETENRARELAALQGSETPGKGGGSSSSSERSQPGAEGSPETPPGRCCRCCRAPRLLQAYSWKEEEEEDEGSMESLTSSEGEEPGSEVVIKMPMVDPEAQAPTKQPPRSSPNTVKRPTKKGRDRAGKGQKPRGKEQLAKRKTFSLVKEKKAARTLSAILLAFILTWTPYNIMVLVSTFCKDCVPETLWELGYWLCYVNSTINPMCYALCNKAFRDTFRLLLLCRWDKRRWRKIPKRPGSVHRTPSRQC

[2] = target: T1, Muscarinic acetylcholine receptor M1; type: functional, cell-based; remark: listed apart in the source
[3] = target: T2, Type-2 angiotensin II receptor (Homo sapiens, UniProt P50052); type: functional
T2 sequence (P50052 whole entry): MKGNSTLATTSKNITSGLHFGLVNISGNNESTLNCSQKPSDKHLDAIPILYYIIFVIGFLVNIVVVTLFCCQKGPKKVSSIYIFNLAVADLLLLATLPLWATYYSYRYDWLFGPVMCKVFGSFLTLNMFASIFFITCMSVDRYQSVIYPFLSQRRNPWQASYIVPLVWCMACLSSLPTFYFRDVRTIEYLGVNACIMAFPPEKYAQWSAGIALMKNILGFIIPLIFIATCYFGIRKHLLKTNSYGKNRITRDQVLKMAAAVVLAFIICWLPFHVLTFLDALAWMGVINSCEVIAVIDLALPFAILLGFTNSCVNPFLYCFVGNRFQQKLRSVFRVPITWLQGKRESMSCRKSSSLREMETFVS

[4] = target: Hydroxycarboxylic acid receptor 2 (Homo sapiens, UniProt Q8TDS4)
Hydroxycarboxylic acid receptor 2, sequence (Q8TDS4 whole entry): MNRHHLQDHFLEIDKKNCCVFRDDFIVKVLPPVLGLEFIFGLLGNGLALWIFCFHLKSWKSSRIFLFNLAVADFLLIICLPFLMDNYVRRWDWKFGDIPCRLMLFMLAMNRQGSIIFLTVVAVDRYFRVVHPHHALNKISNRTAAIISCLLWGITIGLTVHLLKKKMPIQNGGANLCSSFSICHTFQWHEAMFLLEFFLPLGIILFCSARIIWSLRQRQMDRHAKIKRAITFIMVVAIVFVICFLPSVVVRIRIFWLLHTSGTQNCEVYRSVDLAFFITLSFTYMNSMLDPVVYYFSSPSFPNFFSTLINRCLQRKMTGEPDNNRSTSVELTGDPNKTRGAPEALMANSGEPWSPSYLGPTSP

[5] = target: T3, Type-1 angiotensin II receptor (Homo sapiens, UniProt P30556)
T3 sequence (P30556 whole entry): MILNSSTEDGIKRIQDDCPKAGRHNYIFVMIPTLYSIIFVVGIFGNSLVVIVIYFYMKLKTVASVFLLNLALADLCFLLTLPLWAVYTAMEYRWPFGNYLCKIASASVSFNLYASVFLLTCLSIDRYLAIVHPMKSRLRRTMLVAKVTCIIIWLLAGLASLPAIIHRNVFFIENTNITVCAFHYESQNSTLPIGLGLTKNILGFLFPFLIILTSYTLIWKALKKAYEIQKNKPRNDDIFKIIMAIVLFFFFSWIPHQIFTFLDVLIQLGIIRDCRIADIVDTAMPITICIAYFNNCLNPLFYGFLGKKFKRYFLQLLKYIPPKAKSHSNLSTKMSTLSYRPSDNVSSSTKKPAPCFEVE

[6] = target: Voltage-dependent L-type calcium channel subunit alpha-1C (Homo sapiens, UniProt Q13936); type: functional, cell-based
Voltage-dependent L-type calcium channel subunit alpha-1C, sequence (Q13936 whole entry): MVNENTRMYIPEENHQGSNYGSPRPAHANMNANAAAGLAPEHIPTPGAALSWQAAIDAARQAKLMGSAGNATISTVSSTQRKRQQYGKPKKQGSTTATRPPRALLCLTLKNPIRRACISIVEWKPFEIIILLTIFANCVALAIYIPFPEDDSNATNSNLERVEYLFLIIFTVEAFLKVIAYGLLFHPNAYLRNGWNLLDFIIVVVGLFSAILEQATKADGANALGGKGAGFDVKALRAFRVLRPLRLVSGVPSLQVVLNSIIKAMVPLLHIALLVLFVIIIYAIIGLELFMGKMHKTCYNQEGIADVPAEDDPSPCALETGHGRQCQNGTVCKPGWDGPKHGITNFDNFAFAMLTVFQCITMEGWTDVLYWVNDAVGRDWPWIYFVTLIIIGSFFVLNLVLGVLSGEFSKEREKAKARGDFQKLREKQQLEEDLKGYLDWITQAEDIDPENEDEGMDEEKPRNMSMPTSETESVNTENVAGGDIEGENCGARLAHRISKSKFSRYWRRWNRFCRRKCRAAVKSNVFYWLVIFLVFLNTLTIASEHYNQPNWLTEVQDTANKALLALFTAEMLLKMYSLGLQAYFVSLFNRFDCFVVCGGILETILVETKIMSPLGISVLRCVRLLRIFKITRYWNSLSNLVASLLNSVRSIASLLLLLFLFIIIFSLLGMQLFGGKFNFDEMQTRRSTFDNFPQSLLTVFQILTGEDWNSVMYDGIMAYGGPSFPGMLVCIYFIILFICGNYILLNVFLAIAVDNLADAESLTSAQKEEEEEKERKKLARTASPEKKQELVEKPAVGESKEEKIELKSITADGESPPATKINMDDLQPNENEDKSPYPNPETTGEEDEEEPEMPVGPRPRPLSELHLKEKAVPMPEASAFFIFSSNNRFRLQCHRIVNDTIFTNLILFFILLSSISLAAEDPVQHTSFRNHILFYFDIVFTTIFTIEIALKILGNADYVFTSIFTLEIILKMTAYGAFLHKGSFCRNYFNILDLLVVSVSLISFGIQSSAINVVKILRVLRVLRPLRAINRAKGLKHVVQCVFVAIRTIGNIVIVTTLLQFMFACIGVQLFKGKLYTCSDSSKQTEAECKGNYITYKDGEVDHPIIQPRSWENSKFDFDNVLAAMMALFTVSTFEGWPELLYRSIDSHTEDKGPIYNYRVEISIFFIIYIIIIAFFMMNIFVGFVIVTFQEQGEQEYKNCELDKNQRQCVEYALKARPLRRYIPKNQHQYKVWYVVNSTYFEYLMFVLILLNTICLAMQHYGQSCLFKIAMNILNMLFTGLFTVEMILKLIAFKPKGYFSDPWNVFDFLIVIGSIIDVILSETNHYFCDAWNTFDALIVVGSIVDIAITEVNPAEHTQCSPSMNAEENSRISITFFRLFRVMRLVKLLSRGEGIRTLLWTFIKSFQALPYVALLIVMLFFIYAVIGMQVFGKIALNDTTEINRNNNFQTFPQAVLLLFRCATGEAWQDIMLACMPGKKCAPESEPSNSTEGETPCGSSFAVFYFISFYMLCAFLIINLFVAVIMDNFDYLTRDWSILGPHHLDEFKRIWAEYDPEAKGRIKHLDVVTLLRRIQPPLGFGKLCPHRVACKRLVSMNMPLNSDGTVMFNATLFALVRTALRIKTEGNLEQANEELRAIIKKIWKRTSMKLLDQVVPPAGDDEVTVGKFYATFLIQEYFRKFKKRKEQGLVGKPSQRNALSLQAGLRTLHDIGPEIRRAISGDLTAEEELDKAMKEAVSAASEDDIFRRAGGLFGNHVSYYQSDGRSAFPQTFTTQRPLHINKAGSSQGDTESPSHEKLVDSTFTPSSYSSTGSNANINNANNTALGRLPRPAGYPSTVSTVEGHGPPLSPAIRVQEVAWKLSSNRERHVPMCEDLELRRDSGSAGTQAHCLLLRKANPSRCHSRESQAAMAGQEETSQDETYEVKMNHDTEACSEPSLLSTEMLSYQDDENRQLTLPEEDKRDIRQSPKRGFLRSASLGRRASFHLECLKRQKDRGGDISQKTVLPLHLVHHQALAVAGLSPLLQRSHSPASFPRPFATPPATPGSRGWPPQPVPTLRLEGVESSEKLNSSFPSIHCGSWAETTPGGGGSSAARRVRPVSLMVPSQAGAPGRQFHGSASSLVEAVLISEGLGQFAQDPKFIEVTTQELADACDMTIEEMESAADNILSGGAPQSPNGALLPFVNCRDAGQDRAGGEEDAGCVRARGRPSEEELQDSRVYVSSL

[7] = target: T1, Muscarinic acetylcholine receptor M1
[8] = target: T2, Type-2 angiotensin II receptor; type: functional; remark: listed apart in the source
[9] = target: T3, Type-1 angiotensin II receptor; remark: listed apart in the source
D(1A) dopamine receptor = D(1A) dopamine receptor (Homo sapiens, UniProt P21728); type: functional, cell-based
D(1A) dopamine receptor, sequence (P21728 whole entry): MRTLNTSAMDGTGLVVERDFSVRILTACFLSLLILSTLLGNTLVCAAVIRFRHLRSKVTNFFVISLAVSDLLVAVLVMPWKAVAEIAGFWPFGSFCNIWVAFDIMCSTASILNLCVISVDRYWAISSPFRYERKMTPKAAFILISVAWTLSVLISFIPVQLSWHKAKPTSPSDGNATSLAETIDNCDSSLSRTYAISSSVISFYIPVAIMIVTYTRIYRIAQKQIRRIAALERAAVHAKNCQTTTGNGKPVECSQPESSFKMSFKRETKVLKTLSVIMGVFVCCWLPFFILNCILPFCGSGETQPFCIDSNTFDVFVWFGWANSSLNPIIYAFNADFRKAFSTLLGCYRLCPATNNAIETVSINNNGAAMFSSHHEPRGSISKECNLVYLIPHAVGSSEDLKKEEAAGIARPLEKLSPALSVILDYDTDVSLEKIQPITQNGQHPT
Also: assay procedure not described here.

In the case of `CC1OC2(CS1)CN1CCC2CC1` (stereo not given) [CEVIMELINE], the AC50 [1] is reported as > 30 µM and the AC50 [2] is reported as 19 µM.
For `CC(CCc1ccc(O)cc1)NCCc1ccc(O)c(O)c1` (stereo not given) [DOBUTAMINE], the AC50 [3] was > 100 µM.
With `CCC(=O)O[C@]1(C(=O)SCF)[C@H](C)C[C@H]2[C@@H]3C[C@H](F)C4=CC(=O)C=C[C@]4(C)[C@@]3(F)[C@@H](O)C[C@@]21C` [FLUTICASONE PROPIONATE] the AC50 [4] was > 10 µM.
For `CC(C)NCC(O)c1ccc(O)c(O)c1` (stereo not given) [ISOPROTERENOL], the AC50 [5] was > 100 µM.
For `OC1(c2ccc(Cl)cc2)c2ccccc2C2=NCCN21` (stereo not given) [MAZINDOL], the AC50 [6] was > 50 µM.
With `O=[N+]([O-])c1ccc(O)c2ncccc12` [NITROXOLINE] the AC50 [7] was > 30 µM.
`CCCc1nc(C(C)(C)O)c(C(=O)O)n1Cc1ccc(-c2ccccc2-c2nnn[nH]2)cc1` [OLMESARTAN] was tested, and the AC50 [8] was 54 µM and the AC50 [9] was 0.0008 µM.
For `Cc1cc(C(C)(C)C)cc(C)c1CC1=NCCN1` [XYLOMETAZOLINE], the AC50 (D(1A) dopamine receptor) was > 30 µM.
